Measurements from patent US20240408169A1 (priority 2023, published 2024).
*1 amine or outer side, *2 acyl side, *3 side chain or, on linkers, in order; H or OH if unused. Where a SMILES comes first, the peptide text is derived from it. Bridges are numbered along the chain shown (N, C = ends). [ ]: non-standard residue; d: D form. The star is where a group is joined. X53 = CN1[C@@H]2CC[C@H]1CN(c1ccc(-c3ccc(Cl)cc3C[C@@H](C(=O)[*:2])N(C)[*:1])cc1)C2; X52 = CN1C[C@@H]2C[C@H]1CN2c1ccc(-c2ccc(Cl)cc2C[C@@H](C(=O)[*:2])N(C)[*:1])cc1; X21 = CN([C@@H](Cc1cc(Cl)ccc1-c1ccc(N2CCN3CCOC[C@H]3C2)cc1)C(=O)[*:2])[*:1]; X85 = CN([C@@H](Cc1cc(Cl)ccc1-c1ccc([C@]23CCOC[C@H]2C3)nc1)C(=O)[*:2])[*:1]; X1 = C[C@H]1CN(c2ccc(-c3ccc(Cl)cc3C[C@@H](C(=O)[*:2])N(C)[*:1])cc2)CCN1C; X101 = CN([C@@H](Cc1cc(Cl)ccc1-c1cnn(C2CS(=O)(=O)C2)c1)C(=O)[*:2])[*:1]; X45 = CN1CCC(F)(c2ccc(-c3ccc(Cl)cc3C[C@@H](C(=O)[*:2])N(C)[*:1])cc2)CC1; X42 = CN([C@@H](Cc1cc(Cl)ccc1-c1cnn(S(=O)(=O)C2CC2)c1)C(=O)[*:2])[*:1]; X107 = CN([C@@H](Cc1cc(Cl)ccc1-c1ccc(-c2cnn(C)c2)cc1)C(=O)[*:2])[*:1]; NMehhhLys(Me) = CN([C@@H](CCCCCCCN(C)[*:3])C(=O)[*:2])[*:1]; NMe3Pal(2-OiPr,5-Cl) = CN[C@@H](Cc1cc(Cl)cnc1OC(C)C)C(=O)O; X22 = CN([C@@H](Cc1cc(Cl)ccc1-c1cnn(C)c1)C(=O)[*:2])[*:1]; Oxane2carbonyl(2R-CF3) = O=C([C@@]1(C(F)(F)F)CCCCO1)*; Cyclobutanecarbonyl(1-CF3) = O=C(C1(C(F)(F)F)CCC1)*; cBuCO(3,3-F2-1-CF3) = O=C(C1(C(F)(F)F)CC(F)(F)C1)*; Pro(trans-4-F) = O=C(O)[C@@H]1C[C@@H](F)CN1; Gly(cPr) = N[C@H](C(=O)O)C1CC1

Tests used:
CyclinE1/CDK2 = biological target: T1, CyclinE1/CDK2 (Homo sapiens, UniProt P24864); experiment: Fluorescence Polarization (FP) competitive binding assay, Cyclin E1/Cdk2; conditions: 10 nM Cyclin E1/Cdk2, 2 nM FAM probe; average of 2-3 independent experiments; read-out: Cyclin E FP IC50;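 note: readings taken after two-hour equilibration at room temperature in HEPES buffer with NaCl, DTT, NP-40 and BSA, IC50 fitted from eight-concentration serial dilution series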
T1 construct: purchased Eurofins, discovery 14-475

WI-38 cells = experiment: MTT proliferation assay, WI-38; type: cell-based; conditions: 3 days compound exposure, 1:3 serial dilution starting at 10 μM;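 note: Eight- or ten-point dilution series, with exposure length chosen to span about three to four cell doublings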
OVCAR3 cells = experiment: MTT proliferation assay, OVCAR3; type: cell-based; conditions: 5 days compound exposure, 1:3 serial dilution starting at 10 μM;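 note: compound given as an 8- or 10-point series, one day after plating, with exposure covering roughly 3-4 cell doublings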
CyclinB1/CDK1 = biological target: T2, CyclinB1/CDK1 (Homo sapiens, UniProt P14635); experiment: Fluorescence Polarization (FP) competitive binding assay, Cyclin B1/Cdk1; conditions: 10 nM Cyclin B1/Cdk1, 2 nM FAM probe; average of 2-3 independent experiments; read-out: Cyclin B FP IC50;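 note: fluorescence polarization read after equilibration at room temperature, with IC50 taken from serially diluted dose-response curves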
T2 construct: purchased Eurofins, discovery 14-450

CyclinA2/CDK2 = biological target: T3, CyclinA2/CDK2 (Homo sapiens, UniProt P20248); experiment: Fluorescence Polarization (FP) competitive binding assay, Cyclin A2/Cdk2; conditions: 8 nM Cyclin A2/Cdk2, 2 nM FAM probe; average of 2-3 independent experiments; read-out: Cyclin A FP IC50;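 note: plates equilibrated two hours at room temperature before polarization reading, IC50 fitted from eight-concentration compound titration curves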
T3 construct: purchased CRELUX Protein Services

NCI-H1048 cells = experiment: MTT proliferation assay, NCI-H1048; type: cell-based; conditions: 5 days compound exposure, 1:3 serial dilution starting at 10 μM;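 note: Dose-response in 96-well plates over 8 or 10 concentration points, with exposure spanning 3-4 cell doublings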

| Structure (SMILES) | IC50 (CyclinE1/CDK2) | GI50 (WI-38 cells) | GI50 (OVCAR3 cells) | IC50 (CyclinB1/CDK1) | IC50 (CyclinA2/CDK2) | GI50 (NCI-H1048 cells) |
| --- | --- | --- | --- | --- | --- | --- |
| CC(C)C[C@@H]1NC(=O)[C@@H](N(C)C(=O)[C@@H](NC(=O)[C@@H]2C[C@@H](F)CN2C(=O)C2(C(F)(F)F)CC(F)(F)C2)C2CC2)CCCCCCCN(C)C(=O)[C@H](Cc2cc(Cl)ccc2-c2ccc([C@]34CCOC[C@H]3C4)nc2)N(C)C1=O [Example 369] ({cBuCO(3,3-F2-1-CF3)}-[Pro(trans-4-F)][Gly(cPr)][NMehhhLys(Me)]L[X85]; lactam 3-C) | 1.49 µM | 4.54 µM | 0.02 µM | 0.02 µM | 0.02 µM | 0.02 µM |
| CC(C)C[C@@H]1NC(=O)[C@@H](N(C)C(=O)[C@@H](NC(=O)[C@@H]2C[C@@H](F)CN2C(=O)C2(C(F)(F)F)CCC2)C2CC2)CCCCCCCN(C)C(=O)[C@H](Cc2cc(Cl)ccc2-c2cnn(C)c2)N(C)C1=O [Example 185] ({Cyclobutanecarbonyl(1-CF3)}-[Pro(trans-4-F)][Gly(cPr)][NMehhhLys(Me)]L[X22]; lactam 3-C) | 0.11 µM | 10.3 µM | 0.01 µM | 0.02 µM | 0.02 µM | 0.01 µM |
| CC(C)C[C@@H]1NC(=O)[C@@H](N(C)C(=O)[C@@H](NC(=O)[C@@H]2C[C@@H](F)CN2C(=O)C2(C(F)(F)F)CC(F)(F)C2)C2CC2)CCCCCCCN(C)C(=O)[C@H](Cc2cc(Cl)ccc2-c2ccc(N3C[C@H]4CC[C@@H](C3)N4C)cc2)N(C)C1=O [Example 362] ({cBuCO(3,3-F2-1-CF3)}-[Pro(trans-4-F)][Gly(cPr)][NMehhhLys(Me)]L[X53]; lactam 3-C) | 0.6 µM | 1.28 µM | 0.01 µM | 0.02 µM | 0.02 µM | 0.01 µM |
| CC(C)C[C@@H]1NC(=O)[C@@H](N(C)C(=O)[C@@H](NC(=O)[C@@H]2C[C@@H](F)CN2C(=O)C2(C(F)(F)F)CC(F)(F)C2)C2CC2)CCCCCCCN(C)C(=O)[C@H](Cc2cc(Cl)ccc2-c2ccc(C3(F)CCN(C)CC3)cc2)N(C)C1=O [Example 370] ({cBuCO(3,3-F2-1-CF3)}-[Pro(trans-4-F)][Gly(cPr)][NMehhhLys(Me)]L[X45]; lactam 3-C) | 0.78 µM | 1.21 µM | 0.02 µM | 0.02 µM | 0.02 µM | 0.02 µM |
| CC(C)C[C@@H]1NC(=O)[C@@H](N(C)C(=O)[C@@H](NC(=O)[C@@H]2C[C@@H](F)CN2C(=O)C2(C(F)(F)F)CC(F)(F)C2)C2CC2)CC=CCCCCN(C)C(=O)[C@H](Cc2cc(Cl)ccc2-c2cnn(C3CC3)c2)N(C)C1=O [Example 78] | 0.64 µM | 4.52 µM | 0.04 µM | 0.02 µM | 0.04 µM | 0.03 µM |
| CC(C)C[C@@H]1NC(=O)[C@@H](N(C)C(=O)[C@@H](NC(=O)[C@@H]2C[C@@H](F)CN2C(=O)C2(C(F)(F)F)CCC2)C2CC2)CCCCCCCN(C)C(=O)[C@H](Cc2cc(Cl)cnc2OC(C)C)N(C)C1=O [Example 119] ({Cyclobutanecarbonyl(1-CF3)}-[Pro(trans-4-F)][Gly(cPr)][NMehhhLys(Me)]L[NMe3Pal(2-OiPr,5-Cl)]; lactam 3-C) | 0.1 µM | 8.71 µM | 0.3 µM | 0.02 µM | 0.03 µM | 0.25 µM |
| CC(C)C[C@@H]1NC(=O)[C@@H](N(C)C(=O)[C@@H](NC(=O)[C@@H]2C[C@@H](F)CN2C(=O)C2(C(F)(F)F)CC(F)(F)C2)C2CC2)CCCCCCCN(C)C(=O)[C@H](Cc2cc(Cl)ccc2-c2ccc(-c3cnn(C)c3)cc2)N(C)C1=O [Example 338] ({cBuCO(3,3-F2-1-CF3)}-[Pro(trans-4-F)][Gly(cPr)][NMehhhLys(Me)]L[X107]; lactam 3-C) | 1.7 µM | 18.9 µM | 0.02 µM | 0.02 µM | 0.03 µM | 0.02 µM |
| CC(C)C[C@@H]1NC(=O)[C@@H](N(C)C(=O)[C@@H](NC(=O)[C@@H]2C[C@@H](F)CN2C(=O)C2(C(F)(F)F)CC(F)(F)C2)C2CC2)C/C=C\CCCCN(C)C(=O)[C@H](Cc2cc(Cl)ccc2-c2cnn(C)c2)N(C)C1=O [Example 168] | 0.16 µM | 13.1 µM | 0.01 µM | 0.02 µM | 0.02 µM | 0.01 µM |
| CC(C)C[C@@H]1NC(=O)[C@@H](N(C)C(=O)[C@@H](NC(=O)[C@@H]2C[C@@H](F)CN2C(=O)C2(C(F)(F)F)CCC2)C2CC2)CC=CCCCCN(C)C(=O)[C@H](Cc2cc(Cl)ccc2Cl)N(C)C1=O [Example 48] | 0.13 µM | 15.8 µM | 0.05 µM | 0.02 µM | 0.08 µM | 0.04 µM |
| CC(C)C[C@@H]1NC(=O)[C@@H](N(C)C(=O)[C@@H](NC(=O)[C@@H]2C[C@@H](F)CN2C(=O)C2(C(F)(F)F)CCC2)C2CC2)CC=CCCCCNC(=O)[C@H](Cc2cc(Cl)cnc2OC(C)C)N(C)C1=O (single isomer, unassigned) [Example 136-P1] | 0.32 µM | 3.96 µM | 1.77 µM | 0.02 µM | 0.14 µM | 0.83 µM |
| CC(C)C[C@@H]1NC(=O)[C@@H](N(C)C(=O)[C@@H](NC(=O)[C@@H]2C[C@@H](F)CN2C(=O)C2(C(F)(F)F)CC(F)(F)C2)C2CC2)CCCCCCCN(C)C(=O)[C@H](Cc2cc(Cl)ccc2-c2ccc(N3CCN(C)[C@@H](C)C3)cc2)N(C)C1=O [Example 409] ({cBuCO(3,3-F2-1-CF3)}-[Pro(trans-4-F)][Gly(cPr)][NMehhhLys(Me)]L[X1]; lactam 3-C) | 0.67 µM | 2.46 µM | 0.01 µM | 0.02 µM | 0.02 µM | 0.01 µM |
| CC(C)C[C@@H]1NC(=O)[C@@H](N(C)C(=O)[C@@H](NC(=O)[C@@H]2C[C@@H](F)CN2C(=O)C2(C(F)(F)F)CC(F)(F)C2)C2CC2)CC=CCCCCNC(=O)[C@H](Cc2cc(Cl)ccc2-c2cnn(C3CC3)c2)N(C)C1=O [Example 189] | 0.85 µM | 3.67 µM | 0.08 µM | 0.02 µM | 0.05 µM | 0.13 µM |
| CC(C)C[C@@H]1NC(=O)[C@@H](N(C)C(=O)[C@@H](NC(=O)[C@@H]2C[C@@H](F)CN2C(=O)C2(C(F)(F)F)CC(F)(F)C2)C2CC2)CCCCCCCN(C)C(=O)[C@H](Cc2cc(Cl)ccc2-c2cnn(C3CS(=O)(=O)C3)c2)N(C)C1=O [Example 255] ({cBuCO(3,3-F2-1-CF3)}-[Pro(trans-4-F)][Gly(cPr)][NMehhhLys(Me)]L[X101]; lactam 3-C) | 0.21 µM | 15.8 µM | 0.03 µM | 0.02 µM | 0.02 µM | 0.04 µM |
| CC(C)C[C@@H]1NC(=O)[C@@H](N(C)C(=O)[C@@H](NC(=O)[C@@H]2C[C@@H](F)CN2C(=O)[C@@]2(C(F)(F)F)CCCCO2)C2CC2)CCCCCCCN(C)C(=O)[C@H](Cc2cc(Cl)ccc2-c2cnn(S(=O)(=O)C3CC3)c2)N(C)C1=O [Example 283] ({Oxane2carbonyl(2R-CF3)}-[Pro(trans-4-F)][Gly(cPr)][NMehhhLys(Me)]L[X42]; lactam 3-C) | 0.18 µM | 14.2 µM | 0.01 µM | 0.02 µM | 0.03 µM | 0.01 µM |
| CC(C)C[C@@H]1NC(=O)[C@@H](N(C)C(=O)[C@@H](NC(=O)[C@@H]2C[C@@H](F)CN2C(=O)C2(C(F)(F)F)CC(F)(F)C2)C2CC2)CC=CCCCCNC(=O)[C@H](Cc2cc(Cl)ccc2C2=CCN(C(=O)C3CC3)CC2)N(C)C1=O [Example 89] | 5.41 µM | 4.34 µM | 0.38 µM | 0.02 µM | 0.12 µM | 0.31 µM |
| CC(C)C[C@@H]1NC(=O)[C@@H](N(C)C(=O)[C@@H](NC(=O)[C@@H]2C[C@@H](F)CN2C(=O)C2(C(F)(F)F)CC(F)(F)C2)C2CC2)CCCCCCCN(C)C(=O)[C@H](Cc2cc(Cl)ccc2-c2ccc(N3C[C@@H]4C[C@H]3CN4C)cc2)N(C)C1=O [Example 357] ({cBuCO(3,3-F2-1-CF3)}-[Pro(trans-4-F)][Gly(cPr)][NMehhhLys(Me)]L[X52]; lactam 3-C) | 1.97 µM | 3.14 µM | 0.05 µM | 0.02 µM | 0.03 µM | 0.02 µM |
| CC(C)C[C@@H]1NC(=O)[C@@H](N(C)C(=O)[C@@H](NC(=O)[C@@H]2C[C@@H](F)CN2C(=O)C2(C(F)(F)F)CC(F)(F)C2)C2CC2)CCCCCCCN(C)C(=O)[C@H](Cc2cc(Cl)ccc2-c2ccc(N3CCN4CCOC[C@H]4C3)cc2)N(C)C1=O [Example 364] ({cBuCO(3,3-F2-1-CF3)}-[Pro(trans-4-F)][Gly(cPr)][NMehhhLys(Me)]L[X21]; lactam 3-C) | 0.43 µM | 3.25 µM | 0.01 µM | 0.02 µM | 0.02 µM | 0.01 µM |
| CC(=O)N1CC=C(c2ccc(Cl)cc2C[C@H]2C(=O)N(C)CCCCC=CC[C@H](N(C)C(=O)[C@@H](NC(=O)[C@@H]3C[C@@H](F)CN3C(=O)C3(C(F)(F)F)CCC3)C3CC3)C(=O)N[C@@H](CC(C)C)C(=O)N2C)CC1 [Example 36] | 0.82 µM | 16 µM | 0.35 µM | 0.02 µM | 0.03 µM | 0.11 µM |
